Measurements published in US20170335402A1, “DOT1L INHIBITORS AND USES THEREOF” (Baylor College of Medicine, priority 2014, published 2017).
“Also recorded” adds a separate entry of the source.

How the values were obtained:
Format in all cases: cell-based, human
[1] = system: normal CD34+ cells isolated from cord blood; test: Colony-forming cell assay; settings: 3 μM
OCI AML3 cells [2] = test: Cell proliferation and viability assay (trypan blue exclusion)
Description: (§1) Patient AML cell lines were plated in media and treated with the DOT1L inhibitors SYC-522, EPZ004777 or DMSO control was added at the indicated concentrations. Cells counted, washed and re-plated in fresh compound at equal densities every 3-4 days for 12 days. Cell growth and viability were followed by serial cell counts and trypan blue exclusion staining.
(§2) Exponentially growing cells were plated, in triplicate, in 24-well plates at a density of 2×10^5/mL in a final volume of 1 mL. For dose dependent assays, cells were incubated in increasing concentrations of SYC522 up to 10 μM or EPZ004777 up to 24 μM or DMSO control. For time-dependent assays, cells were incubated in 3 μM EPZ004777 or DMSO control. Every 2-3 days media and compound was replaced and cells were split back to a density of 2×10^5/mL. At each re-plating viable cells number was determined by trypan blue exclusion. Total cell number is expressed as split-adjusted viable cells per mL.

OCI AML2 cells [3] = test: as above
Description: as §1, §2

OCI AML3 cells [4] = test: Cell differentiation analysis, CD14 flow cytometry; settings: 3 μM
Description: (§3) Cell differentiation analysis was performed by staining with fluorescently labeled marker for cell differentiation, CD14 followed by flow cytometry. Propidium iodide was added prior to flow cytometry analysis to exclude dead cells.
(§4) Cells were harvested at each re-plating of the cell proliferation assay described above then split for simultaneous analysis of apoptosis, cell cycle, and differentiation. Apoptosis was determined by Annexin V binding (AVB) flow cytometry assay. The harvested cells were re-suspended in 1×AVB buffer, stained with APC-conjugated Annexin V (BD), then analyzed by flow cytometry. For cell cycle analysis, cells were pelleted, washed in PBS with 0.5% bovine serum albumin, then fixed in 70% ice-cold methanol. The fixed cells were then incubated in PBS with 100 μg/mL RNAse (Invitrogen) for 15 minutes in a 37° C. water bath. Propidium iodide (PI) in PBS at a final concentration of 25 μg/mL was then added and the cells were analyzed by flow cytometry. For differentiation, cells were pelleted, and stained with APC-conjugated CD14 then washed and re-suspended in media containing PI to exclude dead cells. All analyses were performed using an LSR II flow cytometer (BD biosciences) and the data were analyzed using FlowJo (TreeStar, V8.8.7).

OCI AML2 cells [5] = test: Cell differentiation analysis, CD14 flow cytometry; settings: 3 μM
Description: as §3, §4

HL60 cells = test: Annexin V binding (AVB) flow cytometry apoptosis assay; settings: 3 μM
Description: as §4

CC(C)N(CCCNC(=O)Nc1ccc(C(C)(C)C)cc1)C[C@H]1O[C@@H](n2ccc3c(N)ncnc32)[C@H](O)[C@@H]1O [EPZ004777]
colony-forming capacity (CFC) [1]: did not significantly impact | cell proliferation (OCI AML3 cells [2]; OCI AML3 (R882 DNMT3A mutant), 3 μM, 14 days time course): dose- and time-dependent inhibition of proliferation; also recorded: profoundly inhibited beginning around 7 days of treatment; also recorded: significant decrease in cell proliferation | cell growth / proliferation (OCI AML3 cells [2]; OCI AML3, escalating doses, 10-14 days): inhibited growth in a dose-dependent fashion | cell proliferation (OCI AML2 cells [3]; OCI AML2 (non-R882 DNMT3A mutant), 3 μM, 14 days time course): dose- and time-dependent inhibition of proliferation; also recorded: only modestly slowed; also recorded: significant decrease in cell proliferation | cell growth / proliferation (OCI AML2 cells [3]; OCI AML2, escalating doses, 10-14 days): inhibited growth in a dose-dependent fashion | differentiation, CD14 expression (OCI AML3 cells [4]): increased expression of the mature monocyte marker, CD14; also recorded: increased expression of the mature monocyte marker CD14; also recorded: significant increase in CD14-positive cells | differentiation, CD14 expression (OCI AML2 cells [5]): increased expression of the mature monocyte marker, CD14; also recorded: increased expression of the mature monocyte marker CD14; also recorded: significant increase in CD14-positive cells | induction of apoptosis (Annexin V binding) (HL60 cells): no induction of apoptosis
